This is an account of results in patent US10406385B2 (Northwestern University, priority 2014, dated 2019).

For data set [1] the following is noted: no adverse reactions in any species even at large doses; cited from earlier work.
The subject of data set [2] is injured skin. The settings on record: topical application at concentrations of 2-5%; cited from earlier work.
The test system of data set [3] is Human umbilical vein endothelial cells (HUVEC). Briefly: Effect of panthenol citrate oligomers on cell viability, HUVEC. It counts as cell-based. The settings on record: higher concentrations (1 mg/ml), 24 hours. On the procedure: Human umbilical vein endothelial cells (HUVEC) (Lonza, Walkersville, Md.), adult human epidermal keratinocytes (HEKa) (Gibco, Carlsbad, Calif.), and human dermal fibroblast (HDF) (Lonza, Walkersville, Md.) were cultured in SmGM-2, Keratinocyte-SFM and DMEM, respectively, in a humidified incubator equilibrated with 5% CO2 at 37° C. Cells were seeded at a density of 1×10^4 cells/ml in 96-well tissue culture plates.

The structures appear in SMILES notation.

Regarding `CC(C)(CO)C(O)C(=O)NCCCO` (racemic) [panthenol, DL-panthenol], the toxicities entry in data set [1] is “negligible”. Further, in data set [2], the “regeneration of injured skin” value is “stimulate the regeneration of injured skin”.

Take `O=C(O)CC(O)(CC(=O)O)C(=O)O` [citric acid, Citric acid]: the HUVEC cell survival result in data set [3] is “died within 24 hours”.
